PubChem BioAssay AID256 (DTP/NCI, 2004)
Inconclusive results and toxic doses are left out. How the source made its calls: active means survival T/C of 150% or more; inactive means T/C below 125% in these data.

System: CD2F1 mice, L1210 leukemia ip, survival T/C
Assay: NCI In Vivo Anticancer Drug Screen. Data for tumor model L1210 Leukemia (intraperitoneal) in CD2F1 (CDF1) mice
Conditions: higher = longer survival
Outline: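 Vehicle-treated tumor-bearing mice served as controls (C) for compound-treated mice (T). Reported figure is T divided by C.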

[1] = endpoint: mean survival time, dose: 200.0 mg/kg/injection, schedule: Q01DX009 (ip), vehicle: saline with Tween-80

Measured: T/C

COc1ccc(C(CC(=O)c2ccccc2)[Se]c2ccccc2)cc1 (configuration not stated)
inactive: endpoint: median survival time, dose: 25.0 mg/kg/injection, schedule: Q01DX009 (ip), vehicle: Klucel (hydroxypropylcellulose) (HPC) 101 % of control | endpoint: median survival time, dose: 50.0 mg/kg/injection, schedule: Q01DX009 (ip), vehicle: Klucel (hydroxypropylcellulose) (HPC) 100 % of control | endpoint: median survival time, dose: 100.0 mg/kg/injection, schedule: Q01DX009 (ip), vehicle: Klucel (hydroxypropylcellulose) (HPC) 101 % of control | endpoint: median survival time, dose: 200.0 mg/kg/injection, schedule: Q01DX009 (ip), vehicle: Klucel (hydroxypropylcellulose) (HPC) 94 % of control

CC(C)(C)OC(=O)C[Si](C)(C)C
inactive: endpoint: mean survival time, dose: 12.5 mg/kg/injection, schedule: Q01DX005 (ip), vehicle: Klucel (hydroxypropylcellulose) (HPC) 90 % of control | endpoint: mean survival time, dose: 25.0 mg/kg/injection, schedule: Q01DX005 (ip), vehicle: Klucel (hydroxypropylcellulose) (HPC) 91 % of control | endpoint: mean survival time, dose: 50.0 mg/kg/injection, schedule: Q01DX005 (ip), vehicle: Klucel (hydroxypropylcellulose) (HPC) 93 % of control | endpoint: mean survival time, dose: 100.0 mg/kg/injection, schedule: Q01DX005 (ip), vehicle: Klucel (hydroxypropylcellulose) (HPC) 90 % of control | endpoint: mean survival time, dose: 200.0 mg/kg/injection, schedule: Q01DX005 (ip), vehicle: Klucel (hydroxypropylcellulose) (HPC) 88 % of control | endpoint: mean survival time, dose: 400.0 mg/kg/injection, schedule: Q01DX005 (ip), vehicle: Klucel (hydroxypropylcellulose) (HPC) 90 % of control

CCOC(=O)CNC(=O)Nc1ccccc1OCC
inactive: endpoint: mean survival time, dose: 50.0 mg/kg/injection, schedule: Q01DX009 (ip), vehicle: saline with Tween-80 89 % of control | endpoint: mean survival time, dose: 100.0 mg/kg/injection, schedule: Q01DX009 (ip), vehicle: saline with Tween-80 89 % of control | [1] 93 % of control

CCOC(=O)Nc1cccc(F)c1C
inactive: endpoint: mean survival time, dose: 100.0 mg/kg/injection, schedule: Q04DX002 (ip), vehicle: saline with Tween-80 105 % of control | endpoint: mean survival time, dose: 200.0 mg/kg/injection, schedule: Q04DX002 (ip), vehicle: saline with Tween-80 109 % of control | endpoint: mean survival time, dose: 400.0 mg/kg/injection, schedule: Q04DX002 (ip), vehicle: saline with Tween-80 94 % of control

NCCS(=O)(=O)O
inactive: endpoint: mean survival time, dose: 100.0 mg/kg/injection, schedule: Q01DX009 (ip), vehicle: water 95 % of control | endpoint: mean survival time, dose: 200.0 mg/kg/injection, schedule: Q01DX001 (ip), vehicle: water 98 % of control | endpoint: mean survival time, dose: 200.0 mg/kg/injection, schedule: Q01DX009 (ip), vehicle: water 86 % of control | endpoint: mean survival time, dose: 400.0 mg/kg/injection, schedule: Q01DX001 (ip), vehicle: water 96 % of control | endpoint: mean survival time, dose: 400.0 mg/kg/injection, schedule: Q01DX009 (ip), vehicle: water 92 % of control | endpoint: mean survival time, dose: 800.0 mg/kg/injection, schedule: Q01DX001 (ip), vehicle: water 98 % of control | endpoint: mean survival time, dose: 800.0 mg/kg/injection, schedule: Q01DX009 (ip), vehicle: water 92 % of control | endpoint: mean survival time, dose: 1600.0 mg/kg/injection, schedule: Q01DX001 (ip), vehicle: water 107 % of control

OC(c1ccccc1)c1ccccn1 (configuration not stated)
inactive: endpoint: mean survival time, dose: 100.0 mg/kg/injection, schedule: Q04DX003 (ip), vehicle: other 93 % of control | endpoint: mean survival time, dose: 200.0 mg/kg/injection, schedule: Q04DX003 (ip), vehicle: other 98 % of control | endpoint: mean survival time, dose: 400.0 mg/kg/injection, schedule: Q04DX003 (ip), vehicle: other 98 % of control

COc1cc(/C=N\O)nc(-c2ccccn2)c1
inactive: endpoint: mean survival time, dose: 100.0 mg/kg/injection, schedule: Q01DX001 (ip), vehicle: saline 107 % of control | endpoint: mean survival time, dose: 200.0 mg/kg/injection, schedule: Q01DX001 (ip), vehicle: saline 98 % of control | endpoint: mean survival time, dose: 400.0 mg/kg/injection, schedule: Q01DX001 (ip), vehicle: saline 97 % of control

CCCCCCCCCCCCCCCCCCCCCC(CC)CC
inactive: endpoint: mean survival time, dose: 100.0 mg/kg/injection, schedule: Q01DX001 (ip), vehicle: saline with Tween-80 101 % of control | endpoint: mean survival time, dose: 200.0 mg/kg/injection, schedule: Q01DX001 (ip), vehicle: saline with Tween-80 107 % of control | endpoint: mean survival time, dose: 400.0 mg/kg/injection, schedule: Q01DX001 (ip), vehicle: saline with Tween-80 103 % of control

O=C1c2ccccc2C(=O)c2c(NCCCCCO)ccc(NCCCCCO)c21
inactive: endpoint: mean survival time, dose: 16.0 mg/kg/injection, schedule: Q01DX009 (ip), vehicle: Klucel (hydroxypropylcellulose) (HPC) 102 % of control | endpoint: mean survival time, dose: 32.0 mg/kg/injection, schedule: Q01DX009 (ip), vehicle: Klucel (hydroxypropylcellulose) (HPC) 93 % of control | endpoint: mean survival time, dose: 64.0 mg/kg/injection, schedule: Q01DX009 (ip), vehicle: Klucel (hydroxypropylcellulose) (HPC) 96 % of control | endpoint: mean survival time, dose: 128.0 mg/kg/injection, schedule: Q01DX009 (ip), vehicle: Klucel (hydroxypropylcellulose) (HPC) 96 % of control | endpoint: mean survival time, dose: 256.0 mg/kg/injection, schedule: Q01DX009 (ip), vehicle: Klucel (hydroxypropylcellulose) (HPC) 104 % of control

O=c1[nH]cc(F)c(=O)[nH]1.[Tl]
inactive: endpoint: mean survival time, dose: 1.5 mg/kg/injection, schedule: Q01DX009 (ip), vehicle: water 106 % of control | endpoint: mean survival time, dose: 3.1 mg/kg/injection, schedule: Q01DX009 (ip), vehicle: water 112 % of control | endpoint: mean survival time, dose: 6.25 mg/kg/injection, schedule: Q01DX009 (ip), vehicle: water 124 % of control | endpoint: mean survival time, dose: 12.5 mg/kg/injection, schedule: Q01DX009 (ip), vehicle: water 91 % of control

Cc1cc(Cc2ccc(N=C=O)c(C)c2)ccc1N=C=O
inactive: endpoint: mean survival time, dose: 100.0 mg/kg/injection, schedule: Q04DX003 (ip), vehicle: saline with Tween-80 103 % of control | [1] 89 % of control | endpoint: mean survival time, dose: 200.0 mg/kg/injection, schedule: Q04DX003 (ip), vehicle: saline with Tween-80 111 % of control | endpoint: mean survival time, dose: 400.0 mg/kg/injection, schedule: Q01DX009 (ip), vehicle: saline with Tween-80 89 % of control | endpoint: mean survival time, dose: 400.0 mg/kg/injection, schedule: Q04DX003 (ip), vehicle: saline with Tween-80 106 % of control
